Common to all, as to experiment: KINOMEscan
Holding throughout (type): binding
Holding throughout (conditions): read-out: % control activity remaining

One assay has as its target T1, CDK9 (Homo sapiens, UniProt P50750).
T1 construct: purchased Eurofins DiscoverX KINOMEscan

The next assay has as its target T2, DAPK1 (Homo sapiens, UniProt P53355).
T2 construct: purchased Eurofins DiscoverX KINOMEscan

Another assay has as its target T3, EGFR (Homo sapiens, UniProt P00533).
T3 construct: purchased Eurofins DiscoverX KINOMEscan

The next assay has as its target T4, FAK (Homo sapiens, UniProt Q05397).
T4 construct: purchased Eurofins DiscoverX KINOMEscan

Another assay concerns the target T5, GSK3B (Homo sapiens, UniProt P49841).
T5 construct: purchased Eurofins DiscoverX KINOMEscan

A further assay deals with T6, HIPK4 (Homo sapiens, UniProt Q8NE63).
T6 construct: purchased Eurofins DiscoverX KINOMEscan
T6 sequence (Q8NE63 1-616): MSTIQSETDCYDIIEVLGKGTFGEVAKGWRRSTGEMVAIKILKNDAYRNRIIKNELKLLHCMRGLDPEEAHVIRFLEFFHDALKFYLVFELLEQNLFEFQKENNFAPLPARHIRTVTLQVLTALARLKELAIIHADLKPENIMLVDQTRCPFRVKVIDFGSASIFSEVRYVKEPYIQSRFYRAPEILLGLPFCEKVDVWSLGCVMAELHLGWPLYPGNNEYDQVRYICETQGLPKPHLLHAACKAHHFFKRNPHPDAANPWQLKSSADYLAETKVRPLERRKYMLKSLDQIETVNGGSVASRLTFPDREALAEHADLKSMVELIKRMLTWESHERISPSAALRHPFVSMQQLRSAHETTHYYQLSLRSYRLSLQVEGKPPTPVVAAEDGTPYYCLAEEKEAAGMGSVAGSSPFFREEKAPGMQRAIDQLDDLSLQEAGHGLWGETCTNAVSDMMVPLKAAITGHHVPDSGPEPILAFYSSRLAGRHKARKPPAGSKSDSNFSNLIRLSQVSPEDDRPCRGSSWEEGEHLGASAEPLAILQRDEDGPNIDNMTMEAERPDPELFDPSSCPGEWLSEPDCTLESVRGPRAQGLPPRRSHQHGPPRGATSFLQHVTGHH

For a further assay, the target named is T7, HUNK (Homo sapiens, UniProt P57058).
T7 construct: purchased Eurofins DiscoverX KINOMEscan
T7 sequence (P57058 1-714): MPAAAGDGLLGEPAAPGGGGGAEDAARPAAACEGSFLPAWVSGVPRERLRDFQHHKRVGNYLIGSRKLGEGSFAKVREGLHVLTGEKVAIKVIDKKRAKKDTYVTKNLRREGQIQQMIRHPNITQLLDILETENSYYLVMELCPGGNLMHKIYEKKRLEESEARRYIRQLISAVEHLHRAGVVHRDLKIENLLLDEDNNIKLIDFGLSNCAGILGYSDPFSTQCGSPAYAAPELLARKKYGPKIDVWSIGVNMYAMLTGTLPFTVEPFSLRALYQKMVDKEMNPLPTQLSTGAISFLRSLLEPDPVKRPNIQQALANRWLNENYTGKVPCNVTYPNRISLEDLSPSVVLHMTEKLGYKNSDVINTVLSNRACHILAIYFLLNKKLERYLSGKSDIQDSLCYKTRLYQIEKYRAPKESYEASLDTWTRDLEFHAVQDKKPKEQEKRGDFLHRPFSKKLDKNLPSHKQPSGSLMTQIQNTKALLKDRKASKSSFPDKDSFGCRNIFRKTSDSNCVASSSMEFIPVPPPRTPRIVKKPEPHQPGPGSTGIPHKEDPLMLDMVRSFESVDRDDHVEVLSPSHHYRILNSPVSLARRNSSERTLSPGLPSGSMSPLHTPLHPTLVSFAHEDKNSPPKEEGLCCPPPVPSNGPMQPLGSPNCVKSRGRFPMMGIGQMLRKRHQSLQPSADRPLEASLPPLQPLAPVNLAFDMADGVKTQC

The next assay deals with T8, LIMK2 (Homo sapiens, UniProt P53671).
T8 construct: purchased Eurofins DiscoverX KINOMEscan

A further assay has as its target T9, NEK9 (Homo sapiens, UniProt Q8TD19).
T9 construct: purchased Eurofins DiscoverX KINOMEscan
T9 sequence (Q8TD19 1-979): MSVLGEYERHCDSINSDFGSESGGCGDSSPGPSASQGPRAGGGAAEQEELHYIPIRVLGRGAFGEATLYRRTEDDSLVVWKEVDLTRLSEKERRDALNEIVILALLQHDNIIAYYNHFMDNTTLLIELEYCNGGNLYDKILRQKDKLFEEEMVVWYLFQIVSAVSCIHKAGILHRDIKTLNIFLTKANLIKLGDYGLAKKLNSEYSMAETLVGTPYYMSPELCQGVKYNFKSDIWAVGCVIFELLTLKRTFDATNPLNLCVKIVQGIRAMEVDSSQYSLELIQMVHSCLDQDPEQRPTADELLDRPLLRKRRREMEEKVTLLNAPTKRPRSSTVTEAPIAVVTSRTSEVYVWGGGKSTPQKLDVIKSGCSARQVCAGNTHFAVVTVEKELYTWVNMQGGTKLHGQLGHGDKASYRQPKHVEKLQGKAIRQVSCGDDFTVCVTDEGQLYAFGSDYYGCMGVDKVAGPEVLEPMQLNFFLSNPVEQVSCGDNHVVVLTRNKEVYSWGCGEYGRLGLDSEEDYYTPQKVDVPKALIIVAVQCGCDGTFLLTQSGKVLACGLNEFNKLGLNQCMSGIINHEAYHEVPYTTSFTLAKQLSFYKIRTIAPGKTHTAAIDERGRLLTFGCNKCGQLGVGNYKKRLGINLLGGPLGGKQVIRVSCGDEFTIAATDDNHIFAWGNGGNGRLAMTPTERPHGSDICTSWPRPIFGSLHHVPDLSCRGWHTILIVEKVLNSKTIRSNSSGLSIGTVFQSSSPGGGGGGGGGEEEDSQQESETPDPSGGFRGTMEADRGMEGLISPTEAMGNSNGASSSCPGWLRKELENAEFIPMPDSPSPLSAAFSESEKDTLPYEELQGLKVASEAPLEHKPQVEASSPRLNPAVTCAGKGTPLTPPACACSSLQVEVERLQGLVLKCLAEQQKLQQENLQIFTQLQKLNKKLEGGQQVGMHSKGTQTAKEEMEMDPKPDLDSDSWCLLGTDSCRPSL

A further assay addresses T10, PFTK1 (Homo sapiens, UniProt O94921).
T10 construct: purchased Eurofins DiscoverX KINOMEscan

For a further assay, the target named is T11, PIK3CG (Homo sapiens, UniProt P48736).
T11 construct: purchased Eurofins DiscoverX KINOMEscan
T11 sequence (P48736 whole entry): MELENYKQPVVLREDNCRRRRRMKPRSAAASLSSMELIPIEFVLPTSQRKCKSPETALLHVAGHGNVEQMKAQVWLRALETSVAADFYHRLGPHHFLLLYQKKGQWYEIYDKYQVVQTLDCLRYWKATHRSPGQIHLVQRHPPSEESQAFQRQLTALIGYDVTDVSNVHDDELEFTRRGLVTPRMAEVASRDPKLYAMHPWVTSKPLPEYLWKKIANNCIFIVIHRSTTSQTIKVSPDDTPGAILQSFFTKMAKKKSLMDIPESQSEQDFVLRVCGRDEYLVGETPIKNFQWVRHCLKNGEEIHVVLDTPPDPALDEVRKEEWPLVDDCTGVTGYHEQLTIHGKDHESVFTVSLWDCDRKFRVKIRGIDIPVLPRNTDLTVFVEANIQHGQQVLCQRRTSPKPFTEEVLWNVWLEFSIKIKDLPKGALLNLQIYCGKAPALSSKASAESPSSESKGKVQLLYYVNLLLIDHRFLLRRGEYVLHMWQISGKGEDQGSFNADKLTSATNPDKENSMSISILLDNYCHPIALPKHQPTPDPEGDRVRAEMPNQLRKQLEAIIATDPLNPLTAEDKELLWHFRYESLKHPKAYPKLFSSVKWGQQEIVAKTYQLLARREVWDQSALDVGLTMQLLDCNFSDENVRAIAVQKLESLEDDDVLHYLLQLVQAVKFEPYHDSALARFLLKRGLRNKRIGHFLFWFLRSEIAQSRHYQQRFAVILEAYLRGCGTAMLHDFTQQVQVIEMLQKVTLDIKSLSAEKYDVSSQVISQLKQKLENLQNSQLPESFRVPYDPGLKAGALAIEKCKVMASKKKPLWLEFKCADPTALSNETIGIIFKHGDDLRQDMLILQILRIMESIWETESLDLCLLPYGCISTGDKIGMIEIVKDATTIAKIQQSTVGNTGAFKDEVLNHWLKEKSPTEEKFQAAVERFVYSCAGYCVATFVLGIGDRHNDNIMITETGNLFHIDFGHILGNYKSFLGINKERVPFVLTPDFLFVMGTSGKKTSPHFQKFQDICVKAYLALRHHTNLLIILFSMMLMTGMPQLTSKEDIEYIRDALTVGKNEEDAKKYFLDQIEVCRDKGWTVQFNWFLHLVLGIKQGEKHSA

The target of a further assay is T12, PKN1 (Homo sapiens, UniProt Q16512).
T12 construct: purchased Eurofins DiscoverX KINOMEscan
T12 sequence (Q16512 whole entry): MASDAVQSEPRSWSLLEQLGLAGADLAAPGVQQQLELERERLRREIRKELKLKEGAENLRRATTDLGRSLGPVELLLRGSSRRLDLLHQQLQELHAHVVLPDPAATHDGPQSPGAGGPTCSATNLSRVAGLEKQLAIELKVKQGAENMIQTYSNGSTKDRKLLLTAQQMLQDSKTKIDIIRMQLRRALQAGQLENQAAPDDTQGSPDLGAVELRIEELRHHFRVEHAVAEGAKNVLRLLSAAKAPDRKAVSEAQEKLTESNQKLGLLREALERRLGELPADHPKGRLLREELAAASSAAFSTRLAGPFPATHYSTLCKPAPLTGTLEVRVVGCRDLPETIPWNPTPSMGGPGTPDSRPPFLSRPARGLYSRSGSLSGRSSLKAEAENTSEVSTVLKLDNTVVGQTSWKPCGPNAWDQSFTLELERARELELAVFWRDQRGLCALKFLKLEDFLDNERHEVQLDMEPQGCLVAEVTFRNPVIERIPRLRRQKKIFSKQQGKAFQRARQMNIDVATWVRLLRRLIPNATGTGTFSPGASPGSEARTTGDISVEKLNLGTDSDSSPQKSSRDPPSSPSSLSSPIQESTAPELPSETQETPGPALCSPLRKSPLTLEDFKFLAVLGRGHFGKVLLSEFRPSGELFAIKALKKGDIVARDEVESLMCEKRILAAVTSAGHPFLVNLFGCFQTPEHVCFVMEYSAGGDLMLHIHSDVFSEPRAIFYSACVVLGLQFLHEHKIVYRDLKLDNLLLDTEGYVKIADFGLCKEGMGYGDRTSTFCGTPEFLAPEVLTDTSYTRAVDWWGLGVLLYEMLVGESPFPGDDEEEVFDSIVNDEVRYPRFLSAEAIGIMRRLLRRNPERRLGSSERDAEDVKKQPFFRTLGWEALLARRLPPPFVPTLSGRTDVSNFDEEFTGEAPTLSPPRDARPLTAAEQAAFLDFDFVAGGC

Molecules are shown by their SMILES.

T3 sequence (P00533 25-1210 limits assumed): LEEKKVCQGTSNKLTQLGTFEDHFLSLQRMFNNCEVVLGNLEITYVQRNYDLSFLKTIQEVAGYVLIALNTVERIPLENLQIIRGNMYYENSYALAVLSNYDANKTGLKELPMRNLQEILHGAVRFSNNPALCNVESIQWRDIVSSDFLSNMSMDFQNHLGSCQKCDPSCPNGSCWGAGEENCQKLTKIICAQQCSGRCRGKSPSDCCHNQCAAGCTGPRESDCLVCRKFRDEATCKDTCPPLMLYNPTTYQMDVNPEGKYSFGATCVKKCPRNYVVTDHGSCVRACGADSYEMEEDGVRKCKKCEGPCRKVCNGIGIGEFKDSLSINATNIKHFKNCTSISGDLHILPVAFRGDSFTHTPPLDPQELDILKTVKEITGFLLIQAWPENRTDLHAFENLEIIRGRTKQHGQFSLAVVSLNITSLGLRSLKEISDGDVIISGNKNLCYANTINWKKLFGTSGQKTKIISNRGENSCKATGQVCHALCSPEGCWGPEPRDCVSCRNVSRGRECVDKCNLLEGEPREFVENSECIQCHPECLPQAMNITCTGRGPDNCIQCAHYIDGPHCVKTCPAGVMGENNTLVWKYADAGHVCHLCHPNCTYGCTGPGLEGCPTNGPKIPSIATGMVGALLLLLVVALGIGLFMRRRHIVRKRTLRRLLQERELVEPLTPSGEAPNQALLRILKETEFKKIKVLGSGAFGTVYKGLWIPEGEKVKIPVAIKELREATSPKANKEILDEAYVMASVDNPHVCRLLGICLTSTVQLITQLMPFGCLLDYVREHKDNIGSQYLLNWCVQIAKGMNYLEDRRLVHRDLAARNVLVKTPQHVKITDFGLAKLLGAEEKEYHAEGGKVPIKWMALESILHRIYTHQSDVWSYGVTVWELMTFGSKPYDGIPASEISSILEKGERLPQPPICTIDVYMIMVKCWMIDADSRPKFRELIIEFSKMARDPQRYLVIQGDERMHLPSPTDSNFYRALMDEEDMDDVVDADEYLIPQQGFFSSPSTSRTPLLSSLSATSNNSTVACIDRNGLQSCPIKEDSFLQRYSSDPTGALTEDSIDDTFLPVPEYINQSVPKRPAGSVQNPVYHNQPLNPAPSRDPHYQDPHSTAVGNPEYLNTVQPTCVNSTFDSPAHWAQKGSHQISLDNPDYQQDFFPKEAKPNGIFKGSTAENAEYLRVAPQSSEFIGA
T5 sequence (P49841 whole entry): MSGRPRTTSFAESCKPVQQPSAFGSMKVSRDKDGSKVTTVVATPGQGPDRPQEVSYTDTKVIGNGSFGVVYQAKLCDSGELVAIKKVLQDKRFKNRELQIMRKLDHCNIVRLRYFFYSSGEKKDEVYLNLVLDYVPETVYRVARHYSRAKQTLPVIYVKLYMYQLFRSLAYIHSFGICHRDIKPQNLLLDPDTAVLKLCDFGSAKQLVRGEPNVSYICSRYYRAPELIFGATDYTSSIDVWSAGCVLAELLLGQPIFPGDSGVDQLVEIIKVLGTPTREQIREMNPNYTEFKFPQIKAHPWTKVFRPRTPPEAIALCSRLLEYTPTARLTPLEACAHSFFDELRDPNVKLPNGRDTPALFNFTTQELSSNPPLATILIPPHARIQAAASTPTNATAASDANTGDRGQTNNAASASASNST
T2 sequence (P53355 whole entry): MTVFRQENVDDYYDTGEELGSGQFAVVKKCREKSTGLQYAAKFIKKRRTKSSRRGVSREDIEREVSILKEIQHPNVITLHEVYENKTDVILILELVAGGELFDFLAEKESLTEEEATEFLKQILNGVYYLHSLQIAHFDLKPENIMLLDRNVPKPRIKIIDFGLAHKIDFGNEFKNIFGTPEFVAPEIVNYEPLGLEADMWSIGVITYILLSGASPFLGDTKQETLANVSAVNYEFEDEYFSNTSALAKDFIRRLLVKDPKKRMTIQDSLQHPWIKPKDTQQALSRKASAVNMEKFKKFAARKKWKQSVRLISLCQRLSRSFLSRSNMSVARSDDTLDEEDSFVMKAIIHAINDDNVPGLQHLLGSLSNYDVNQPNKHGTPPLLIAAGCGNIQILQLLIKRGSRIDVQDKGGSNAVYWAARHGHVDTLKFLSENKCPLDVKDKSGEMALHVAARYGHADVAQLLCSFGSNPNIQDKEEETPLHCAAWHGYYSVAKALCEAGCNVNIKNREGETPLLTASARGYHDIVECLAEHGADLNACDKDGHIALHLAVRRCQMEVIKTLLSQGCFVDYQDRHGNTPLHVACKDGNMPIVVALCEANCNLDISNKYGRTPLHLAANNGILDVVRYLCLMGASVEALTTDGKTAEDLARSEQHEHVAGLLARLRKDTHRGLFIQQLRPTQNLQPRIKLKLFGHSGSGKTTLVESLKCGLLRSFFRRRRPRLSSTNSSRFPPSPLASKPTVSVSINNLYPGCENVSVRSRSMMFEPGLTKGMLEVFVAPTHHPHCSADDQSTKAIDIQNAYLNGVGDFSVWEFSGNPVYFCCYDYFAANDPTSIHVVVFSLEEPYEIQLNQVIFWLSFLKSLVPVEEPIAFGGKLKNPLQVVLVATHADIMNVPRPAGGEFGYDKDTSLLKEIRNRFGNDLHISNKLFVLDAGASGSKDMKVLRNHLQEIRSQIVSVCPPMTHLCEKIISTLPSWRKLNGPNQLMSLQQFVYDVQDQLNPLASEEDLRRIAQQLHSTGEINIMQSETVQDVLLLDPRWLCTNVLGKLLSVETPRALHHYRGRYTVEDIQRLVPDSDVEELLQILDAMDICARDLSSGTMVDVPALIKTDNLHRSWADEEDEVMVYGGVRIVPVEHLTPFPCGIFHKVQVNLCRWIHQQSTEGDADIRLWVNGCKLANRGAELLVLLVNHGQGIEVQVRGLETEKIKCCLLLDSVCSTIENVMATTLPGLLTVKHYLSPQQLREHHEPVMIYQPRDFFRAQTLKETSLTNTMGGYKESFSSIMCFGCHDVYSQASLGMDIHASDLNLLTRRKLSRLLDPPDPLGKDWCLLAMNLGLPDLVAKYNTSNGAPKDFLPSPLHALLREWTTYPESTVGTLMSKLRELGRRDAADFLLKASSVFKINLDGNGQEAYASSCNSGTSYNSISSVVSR

Consider `Clc1cc(NCC2CC2)c2ncc(-c3ccc4[nH]ncc4c3)n2n1` [compound 2, 6-Chloro-N-(cyclopropylmethyl)-3-(1H-indazol-5-yl)imidazo[1,2-b]pyridazin-8-amine], for which the remaining binding at 1 µM on CDK9 amounted to 98%; on DAPK1, 98%; on EGFR, 71%; on FAK, 91%; at GSK3B, 99%; at HIPK4 it was 8.6%. Also, the remaining binding at 1 µM on HUNK came to 90%; on LIMK2, 94%; at NEK9 it was 100%; on PFTK1 it was 87%; at PIK3CG, 78%; on PKN1, 100%.
`O=C(CN1CCOCC1)N[C@H]1CC[C@H](Nc2cc(Cl)nn3c(-c4ccc5[nH]ncc5c4)cnc23)CC1` [compound 26]: the remaining binding at 1 µM at CDK9 came out at 43%; at DAPK1, 66%; at EGFR, 80%; on FAK, 100%; at GSK3B, 92%; on HIPK4, 5.1%. The remaining binding at 1 µM at HUNK was 100%; on LIMK2, 85%; at NEK9 it was 91%; at PFTK1 it was 99%; at PIK3CG it was 100%; at PKN1, 71%.
In the case of `CN1CCC(CNc2cc(Cl)nn3c(-c4cc5nc(Nc6ccccc6)[nH]c5cc4F)cnc23)CC1` [compound 31, 6-Chloro-3-(6-fluoro-2-(phenylamino)-1H-benzo[d]imidazol-5-yl)-N-((1-methylpiperidin-4-yl)methyl)imidazo[1,2-b]pyridazin-8-amine], the remaining binding at 1 µM at CDK9 was 95%; at DAPK1, 99%; on EGFR, 100%; at FAK it was 97%; on GSK3B, 96%; at HIPK4, 71%. Besides, the remaining binding at 1 µM at HUNK is 92%; at LIMK2, 100%; at NEK9, 100%; on PFTK1, 96%; at PIK3CG, 100%; on PKN1, 91%.
